Data on five compounds can be found in patent US20080051454A1, “Compositions and methods for transient receptor potential vanilloid (TRPV) channel mediated treatments” (The Board of Trustees Operating Michigan State University, priority 2006, published 2008).

For test [1], the system named is Wistar rats fed a normal-salt (NS) or high-salt (HS) diet for 10 days. As to the kind of experiment: MAP and HR responses to i.v. bolus NADA with or without antagonists in conscious rats. It counts as in vivo, rat. The conditions noted are these: for prolonged depressor effect of NADA (decrease in MAP) after antagonist: NADA 4 mg/kg after CAPZ 3 mg/kg, CGRP8-37 infusion or SR141716A 3 mg/kg; for decrease in mean arterial pressure (depressor effect): NADA iv (1, 4, 10 mg/kg; dose of this value not stated). The source says:
In brief: Wistar rats were fed a normal (NS, 0.4%) or high (HS, 4%) sodium diet for 10 days, then artery and vein were cannulated for measurement of mean arterial pressure (MAP) or for injection of drugs and collection of plasma.
Animal Preparation: Male Wistar rats (7 weeks old, Charles River Laboratory, Wilmington, Mass.) were housed in the animal facility for 1 week before the experiment. Rats were grouped randomly and pair-fed a NS (0.4% of Na^+ by weight) or HS (4% of Na^+ by weight) diet for 10 days. The rat chow was purchased from Harlan Teklad Diets (Madison, Wis.). Drinking water was available ad libitum throughout the experiment. All protocols were in accordance with the National Institutes of Health Guidelines for the Care and Use of Laboratory Animals.
Surgical Preparation Rats were anesthetized with ketamine and xylazine (80 and 4 mg/kg intraperitoneally, respectively) for cannulation or with urethane (1.5 g/kg intraperitoneally) for capsaicin administration. The left jugular vein, carotid and femoral artery were cannulated under anesthesia for injection of drugs or monitoring of mean arterial pressure (MAP) and heart rate (HR).
Three hours after surgery, baseline MAP and its response to the above-mentioned drugs were obtained with the rats fully awake and unrestrained [Wang et al., Am J Physiol 2004; 287:H1868-H[874]. NADA was injected in increasing doses (1, 4, and 10 mg/kg intravenous bolus) in 3 subgroups of rats (each group for each dose). To determine the role of TRPV1 and CB 1 receptor in NADA-induced hypotension, NADA (4 mg/kg) was injected 10 minutes or 20 minutes after intravenous injection of CAPZ (3 mg/kg) or SR141716A (3 mg/kg), respectively.
To examine the effect of CGRP8-37 on NADA-induced hypotension, CGRP8-37 was intravenously administered at the rate of 1 mg/kg/min for 2 minutes followed by injection at the rate of 0.5 mg/kg/min for 15 minutes. NADA (4 mg/kg) was injected 1 minute after CGRPs-37 administration. The effectiveness of the dose and time frame for CGRP8-37 injection was verified by blockade of the hypotensive response to capsaicin (30 μg/kg) (n=5).

The test system of another test is Wistar rats fed HS diet. As to the kind of experiment: Blood pressure after i.v. SR141716A or CAPZ in conscious rats fed HS diet (Example I). The format is in vivo, rat. Conditions: 3 mg/kg iv. Here is the method: Experiments were approved by the Institutional Animals Care and Use Committee. Experiments were performed using male Wistar rats (Charles River Laboratory, Wilmington, Mass.). Rats (6 weeks old) were housed in the animal facility for 1 week before the experiments. Rats were then randomly assigned to a normal-sodium (NS) diet (0.4% of Na+ by weight, Harlan Teklad) or HS (4% of Na+ by weight; Harlan Teklad) for 3 weeks. Rats drank water ad libitum throughout the experiment.
Surgical Preparation and MAP measurements: The rats were anesthetized with ketamine and xylazine (80 and 4 mg/kg intraperitoneally, respectively) for implantation of vascular catheters or with urethane ([…] intraperitoneally) throughout protocol 2. […]
Protocol 1: Rats fed a NS or HS diet were randomly assigned to 5 groups for intravenous injection of vehicle or MethA alone or in combination with SR141716A (a CB1 receptor antagonist), CAPZ (a VR1 receptor antagonist), or the combination of the 2 (n=5 to 8). Baseline MAP and its response to the aforementioned drugs were determined 3 hours after surgery when animals were fully awake and unrestrained as described previously. […]

The test system of test [2] is mesenteric arteries. As to the kind of experiment: NADA-induced CGRP release from isolated mesenteric arteries (radioimmunoassay). More on the design: species or system rat. Here is the method: After an 1 h stabilization period, the arteries were transferred to another chamber containing 1 ml of Krebs's solution with the addition of 0.05% BSA and drugs including NADA (1 or 10 μM) or CAPZ (10 μM). The tissues were removed after 20 min incubation, and the solutions were collected and evaporated. […] At the end of the experiment, the tissues were blotted and weighted. […] The results are expressed as pg of milligram of tissues.
(§1) This antibody has 100% cross-reactivity with rat a-CGRP and 79% with β-CGRP. There is no cross-reactivity with rat amylin, calcitonin, somatostatin, or substance P. The assay was performed following the manufacturer's protocol.

For test [3], the system named is Wistar rats fed a NS or HS diet for 10 days. As to the kind of experiment: Plasma CGRP levels after NADA injection (radioimmunoassay). The format is in vivo, rat. Conditions: NADA 4 mg/kg. Here is the method: Eight minutes after injection, when the depressor phase approached to the lowest point, the rats were sacrificed for collection of blood for plasma CGRP assay.
as §1

Test [4] relates to male Wistar rats. The test is described as follows: Depressor effect of 20-HETE analog DSR given IV, with or without antagonists. The format is in vivo, rat.
Test [5] has as its system male Wistar rats. The test is described as follows: Plasma CGRP and substance P after i.v. DSR (radioimmunoassay). The format is in vivo, rat. The conditions noted are these: after DSR 1 mg/kg iv.
Test [6] deals with high-salt plus capsaicin pretreated rats. The conditions noted are these: rat, in vivo; cited from earlier work.
Test [7] has as its system mesenteric arteries. The test is described as follows: MethA-induced CGRP release from isolated mesenteric arteries (radioimmunoassay). Also on record: species or system rat. Conditions: arteries of NS-treated rats. Here is the method: The arteries were dissected free of fat and connective tissues.
The preparations were incubated in a Krebs' solution of the following compositions (in mM): NaCl 119, NaHCO3 25, KH2PO4 1.2, MgSO4 1.5, CaCl2 2.5, KCl 4.7, and D-glucose 11. The Krebs' solution was maintained at 37 °C and gassed with 95% O2 and 5% CO2. After 1 h stabilization period, the arteries were transferred to another chamber containing 1 ml of Krebs' solution with the addition of 0.05% BSA and drugs. […] The tissues were removed after 20 min incubation, and the solutions were collected. At the end of the experiment, the tissues were blotted and weighted.
(§2) This antibody has 100% cross-reactivity with rat α-CGRP and 79% with rat β-CGRP. There is no cross-reactivity with rat amylin, calcitonin, somatostatin, or substance P.

The subject of test [8] is Wistar rats fed a NS or HS diet for 3 weeks. The test is described as follows: Plasma CGRP levels after MethA injection (radioimmunoassay). The conditions noted are these: MethA 5 mg/kg. It counts as in vivo, rat.
From the text: Fifteen minutes after injection, when the prolonged depressor phase approached to the lowest point, the rats were decapitated for collection of blood for plasma CGRP assay.
as §2

SMILES strings stand for the structures. Several values for one entry are separate records, joined by “and”; a condition that tells them apart may be missing. Equal values may be shown once.

`Cc1c(C(=O)NN2CCCCC2)nn(-c2ccc(Cl)cc2Cl)c1-c1ccc(Cl)cc1` [SR141716A]: the results for the “prolonged depressor effect of NADA (decrease in MAP) after antagonist” value in test [1] (HS diet) and in test [1] (NS diet) were 19±4 mmHg and 12±3 mmHg, respectively. Also, the “effect on initial transient hypotensive and brief pressor phases of NADA” value in test [1] (NADA 4 mg/kg, NS and HS) is on record as “did not affect”. The “duration of transient elevation in blood pressure after injection” value in the test on Wistar rats fed HS diet is given as “no more than 15 minutes”.

`CCCCC/C=C\C/C=C\C/C=C\C/C=C\CCCC(=O)NCCc1ccc(O)c(O)c1` [NADA, N-arachidonoyl dopamine]: the “peak decrease in MAP” value was 6±2 mmHg in test [1] (NADA 1 mg/kg iv, HS diet); 7±3 mmHg in [1] (NADA 1 mg/kg iv, NS diet); 22±3 mmHg in test [1] (NADA 4 mg/kg iv, HS diet); 14±2 mmHg in test [1] (NADA 4 mg/kg iv, NS diet); 33±5 mmHg in test [1] (NADA 10 mg/kg iv, HS diet); 24±4 mmHg in test [1] (NADA 10 mg/kg iv, NS diet). For the same compound, the “decrease in mean arterial pressure (depressor effect)” value in [1] (HS diet) is recorded as 16±3 mmHg; in test [1] (NS diet), 8±2 mmHg. Also, the “HR during depressor effect” value in test [1] (after NADA iv) was “pronounced increase”. The “duration of prolonged depressor activity” value in test [1] (after NADA iv) was “approximately 20 minutes”. Also, the “time of peak of prolonged depressor activity after administration” value in test [1] (after NADA iv) was 7 to 9 min. Further, the CGRP release was determined as 9.16±0.68 pg/mg tissue with mesenteric arteries [2] (NADA 1 μM, arteries of HS-treated rats); 6.43±0.58 pg/mg tissue in the test on mesenteric arteries [2] (NADA 1 μM, arteries of NS-treated rats); 19.00±1.56 pg/mg tissue in the test with mesenteric arteries [2] (NADA 10 μM, arteries of HS-treated rats); 13.07±0.91 pg/mg tissue in the test with mesenteric arteries [2] (NADA 10 μM, arteries of NS-treated rats). Moreover, the “plasma CGRP levels” value in test [3] (HS) is 84.2 ± 7.2 pg/mL and 87.7 ± 5.6 pg/mL; in test [3] (NS) it was 55.3 ± 4.6 pg/mL and 60.6 ± 5.1 pg/mL.

As to `O=C(O)CCC/C=C\CCCCCCC/C=C\CCCCO` [DSR], the “decrease in mean arterial pressure” value in the test with male Wistar rats [4] (DSR 1 mg/kg IV alone) was determined as 22.1±2.3 mmHg. Moreover, the “depressor effect among the analogs tested in vivo” value in the test on male Wistar rats [4] (rat, in vivo) was “most potent”. Besides, in the test on male Wistar rats [5], the “plasma CGRP levels” value was 273.4 ± 23.6 pg/mL and the “plasma SP levels” value was found to be 14.5 ± 1.6 pg/mL.

In the case of `CCCCc1nc(Cl)c(CO)n1Cc1ccc(-c2ccccc2-c2nn[nH]n2)cc1` [losartan], in test [6], the “effect on the impaired natriuretic response” value was “unable to prevent” and the “prevention of the development of salt-induced hypertension” value is recorded as “prevented”.

Take `CCCCC/C=C\C/C=C\C/C=C\C/C=C\CCCC(=O)N[C@H](C)CO` [MethA, methanandamide]: the CGRP release in the test with mesenteric arteries [7] (MethA 0.1 μM) was found to be 4.81±0.75 pg/mg tissue; in the test with mesenteric arteries [7] (MethA 10 μM), 14.89±2.36 pg/mg tissue. Besides, the “plasma CGRP levels” value in [8] (HS) was 78.1 ± 8.5 pg/mL; in test [8] (NS), 50.4 ± 5.9 pg/mL.
